The values below come from a melting point compilation (Tetko et al.; mined from patent text by program, amines drawn as free bases though some values may be those of a salt).

By melting point is commonly meant the temperature, or range, at which the solid turns liquid.

For the compound `COC(=O)CCC(=O)c1ccc2c(c1)CNC(=O)N2C`, the melting point lay within 165 to 175 °C.

In turn, `COc1ccc(-c2cc(=O)c3c(O)cc(O)cc3o2)cc1OCC(O)CO` (configuration not stated) had a melting point of 215 to 218 °C.

`CCC(COC)n1cc(Cl)nc(N2CCc3cc(OC)cc(Cl)c32)c1=O` (configuration not stated): the melting point lay within 126 to 128 °C.

`Nc1ccc(F)cc1CCN1CCN(c2nsc3ccccc23)CC1` yielded a melting point of 115 °C.

Take `Cc1cccc(-c2nc(CC(=O)O)sc2-c2ccnc(N)c2)c1`: the melting point lay in the range of 132 to 133 °C.

`COc1cc(OC)c(C(C)=O)c(O)c1OC` yielded a melting point of 114 to 116 °C.

In turn, `COc1cccc(-n2c3c(c(=O)c4cccnc42)CCO3)c1` gave a melting point of 194 to 196 °C.

In turn, `O=C(Cl)c1ccc(Cl)c(OCCn2cnnn2)c1Cl` gave a melting point of 69 to 73 °C.

Compound `COc1ccc2cc(C(=O)C(C)(C)c3ccccc3)oc2c1` returned a melting point of 93 to 95 °C.

The compound `Cc1ccccc1NC(=O)Nc1ccc(C(=O)N2CCCCc3ccccc32)cc1` came in with a melting point of 182 °C.

For the compound `CC(Cc1cc(F)cc2c(Cl)coc12)NC(=O)OC(C)(C)C` (configuration not stated), the melting point fell in the range of 127 to 129 °C.

`CN=C(NCc1ccccc1)NN=Cc1c(Cl)cccc1Cl` gave a melting point of 84 to 86 °C.

Consider `COC1(OC)CCCCC1N=O` (configuration not stated), for which the melting point was 108 to 120 °C.

Compound `COCCc1nc2c(N)nc3cc(OCc4ccccc4)ccc3c2n1CCCCNS(C)(=O)=O` returned a melting point of 144 to 148 °C.

On to `CCC(=O)Nc1cc(-c2c(-c3ccc(Cl)cc3)nc3cccnn23)ccn1`, for which the melting point lay within 204 to 205 °C.

Compound `Cc1nc(N2CCc3ccccc3CC2)c(C#N)c(=O)n1C1CC1` had a melting point of 177 to 179 °C.

Compound `CN1C(=O)CC(=O)N(C)c2ccccc21` registered a melting point of 240 to 242 °C.

Compound `COc1ccc(OC)c(C(=O)C=Cc2cccc(C(=O)O)c2)c1` displayed a melting point of 152 to 155 °C.

With `Cc1ccc(C=Cc2csc3ccccc23)s1`, the melting point fell in the range of 62 to 64 °C.

On to `COc1cccc2c(CCCNC3COc4c(F)ccc(C(N)=O)c4C3)c[nH]c12` (configuration not stated), for which the melting point lay within 196 to 198 °C.

`O=P(O)(O)C1(P(=O)(O)O)CCCN1`: the melting point was determined as 80 °C.

The compound `Cc1ccccc1C(=O)c1nc[nH]c1C` registered a melting point of 165 to 166 °C.

On to `CS(=O)(=O)Oc1cnc2cc(OC(F)(F)F)ccc2c1O`, for which the melting point is 125 to 127 °C.

`Cc1ccc2nc(-n3nc4c(c3O)-c3ccccc3CC4)sc2c1` returned a melting point of 218 to 219 °C.

Compound `OCc1ccc2ccccc2c1OCc1ccccc1` showed a melting point of 85 to 87 °C.

`CC(C)(C)COC(=O)Cc1cccc2c(=O)cc(C3=CCCCC3)oc12` came in with a melting point of 138 to 139 °C.

Consider `COc1ccc(-n2nnc(-c3ccc(C(F)(F)F)cc3F)c2N)cc1`, for which the melting point lay in the range of 165 to 166 °C.

With `CS(=O)(=O)c1ccc(-c2cc(C(=O)CCCO[N+](=O)[O-])nn2-c2ccc(Br)cc2)cc1`, the melting point was in the range of 150 to 152 °C.

`N#CC(c1ccccc1)C1CCN(c2ccc([N+](=O)[O-])cc2)CC1` (configuration not stated) gave a melting point of 118 °C.

Compound `C=Cn1cc(C(=O)O)c(=O)c2cc(Cl)c(N3CCNCC3)nc21` gave a melting point of 272 to 274 °C.

The compound `Cc1cccc(-c2nc(-c3ccc(S(C)(=O)=O)cc3)sc2-c2ccnc(S(=O)(=O)c3ccccc3)c2)c1` gave a melting point of 126 to 128 °C.

`CC1(C)COc2ccc(Cl)cc2C(O)(c2ccccn2)C1` (configuration not stated) gave a melting point of 118 °C.

`CCOC(=O)c1ccc2oc3ccc(OC)cc3c(=O)c2c1` returned a melting point of 170 to 172 °C.

`COc1cc(N2CCC(N3CCN(C)CC3)CC2)ccc1Nc1ncc2ccc(-c3ccc(Cl)nc3)n2n1` returned a melting point of 186 to 188 °C.

`COc1ccc2ccc(OS(=O)(=O)C(F)(F)F)cc2c1`: the melting point was 34 °C.

The compound `O=C(O)c1ccnc(NC(=O)C(Cc2ccccc2)NP(=O)(O)O)c1` (configuration not stated) had a melting point of 135 to 137 °C.

The compound `Cn1ccnc1-c1ccc(-c2cnc([C@H](Cc3ccccn3)N(C=O)c3cc4ccccc4[nH]3)n2C)cc1` registered a melting point of 218 to 222 °C.

Compound `c1ccc(CN2CCC3(CC2)SC(c2ccccc2)c2ccccc23)cc1` (configuration not stated) had a melting point of 144 to 145 °C.

For the compound `O=C(Nc1cccc(-c2ncnc3[nH]c(-c4ccncc4)cc23)c1)c1cccc(C(F)(F)F)c1`, the melting point is > 280 °C.

Compound `CC(=O)SCC(Cc1ccccc1)C(=O)Nc1cccc(C(=O)OCc2ccccc2)c1` (configuration not stated) showed a melting point of 108 to 109 °C.

In turn, `CCCCCCCCCCCC(=O)c1c[nH]c2cc(C(=O)OC)ccc12` registered a melting point of 167 to 169 °C.

Regarding `CC(=O)OC1CSC(Sc2ccccc2S(C)(=O)=O)C(OC(C)=O)C1OC(C)=O` (configuration not stated), the melting point is 209 °C.

As to `CC(C)C[C@@H](C=O)NC(=O)[C@H](Cc1c[nH]cn1)NC(=O)C(CCCCc1ccccc1)Cc1cccc2ccccc12` (some centres not stated), the melting point fell in the range of 87 to 92 °C.

Regarding `O=C1N=c2cc(O)c(O)cc2=NC1=O`, the melting point was > 350 °C.

Compound `COc1ccc(CCNc2nc(N)n3nc(-c4ccco4)nc3n2)cc1` registered a melting point of 211 to 213 °C.

`COC(=O)C(=O)Nc1cccc(C(=O)Nc2nnn[nH]2)c1` showed a melting point of 253 to 254 °C.

The compound `CCOC(=O)Nc1cc(I)c(NS(C)(=O)=O)cc1OC` registered a melting point of 153 to 155 °C.

Regarding `CC(C)C(=O)c1ccc(F)cc1O`, the melting point is 160 °C.

As to `CC(C)n1c(/C=C/[C@H]2C[C@H](CC(=O)OC(C)(C)C)OC(C)(C)O2)c(-c2ccc(F)cc2)c(-c2ccccc2)c1C(N)=O`, the melting point lay within 73 to 75 °C.

Regarding `COC(=O)C1=C(C)NC(C)=C(C(=O)OC(C)C)C1c1cc([N+](=O)[O-])ccc1Cl` (configuration not stated), the melting point worked out at 163 °C.

`Fc1cccc(F)c1-c1nccc(-c2ccc(-c3ccc(C(F)(F)F)cc3)cc2)n1` returned a melting point of 141 to 142 °C.

Consider `CCCCCCCCCCCCCCOC(=O)CCCCc1cc(OC(C)=O)c(OC(C)=O)c([N+](=O)[O-])c1`, for which the melting point was 46 to 47 °C.

Turning to `CC(C)(C)c1ccc(C(O)CCCN2CCC(C(O)c3nc4ccccc4n3Cc3ccc(F)cc3)CC2)cc1` (configuration not stated), the melting point was 87 to 90 °C.

The compound `CN1Cc2c(C(=O)OC(C)(C)C)ncn2-c2cccc(Br)c2C1=O` showed a melting point of 207 to 208 °C.

Take `Cn1nc(-c2ccc3c(c2)OCO3)c(-c2ccncc2)c1NC(=O)Cc1ccccc1`: the melting point was 128 to 132 °C.

Compound `O=c1c2c(N3CCNCC3)cc(Cl)cc2n(Cc2ccccc2)c(=O)n1Cc1ccccc1` had a melting point of 115 to 123 °C.

For `Cn1c(=O)c2ccccc2n(CCCBr)c1=O`, the melting point was in the range of 90 to 96 °C.

As to `N#CC1CCc2cc(C(=O)O)ccc2C1` (configuration not stated), the melting point lay within 231 to 236 °C.

In turn, `O=C(Nc1ccccc1)c1cccc(-c2ccnc3c(C(=O)c4cccs4)cnn23)c1` came in with a melting point of 211 to 212 °C.

Compound `Cc1ccc(S(=O)(=O)N(Cc2ccccc2)N=O)cc1` yielded a melting point of 92 to 93 °C.

`CSc1cc(Nc2cccc(C)c2)c(S(=O)(=O)NC(C)(C)C)cn1` gave a melting point of 178 °C.

In the case of `CNC(=S)C1(c2ccncc2)CCCS1` (configuration not stated), the melting point was found to be 178 °C.

Compound `Cc1ccc(-c2ccc3c(c2)C=C(C(=O)Nc2ccc(CN(C)C4CCOCC4)cc2)CCN3C=O)cc1` displayed a melting point of 229 to 230 °C.

Regarding `COc1cc(C2CC(=O)NC(=O)C2)cc2c(C)c(C)oc12`, the melting point lay in the range of 220 to 222 °C.

On to `COc1ccc(C(=O)NNC(C)=N)cc1`, for which the melting point fell in the range of 179 to 181 °C.

As to `Cc1c(NC(=O)CC(C)(C)C)cc2c(c1C)OC(C)(C)C2(O)Cc1ccc(C(C)C)cc1` (configuration not stated), the melting point was 177 to 178 °C.

Compound `O=C1CCC(N2Cc3c(OCc4ccc(CN5CCN(S(=O)(=O)C6CC6)CC5)cc4)cccc3C2=O)C(=O)N1` (configuration not stated) yielded a melting point of 145 to 147 °C.

Take `COc1ccc(-c2ccc(Cl)nn2)cc1Br`: the melting point is 226 to 228 °C.

For `Cc1cn(C)c(C(=O)O)c1-c1ccccc1[N+](=O)[O-]`, the melting point was 205 °C.

Compound `CC1(C(=O)O)c2ccccc2Oc2ccccc21` had a melting point of 87 to 88 °C.

`COC(=O)C1Sc2cc(Cl)ccc2OCC1=O` (configuration not stated): the melting point is 92 to 94 °C.

Regarding `O=C(Nc1ccc(F)cc1)N1CC2C(C1)C2Nc1ncc2cc(-c3ccccc3Cl)c(=O)n(-c3ccc(F)cc3)c2n1` (configuration not stated), the melting point lay in the range of 300 to 302 °C.

`Nc1nc2c(sc(=O)n2C2OC(CO)C(O)C2F)c(=O)[nH]1` (configuration not stated) yielded a melting point of 232 to 234 °C.

`O=C1Nc2ccc(I)cc2C1=NNC(=O)c1cccc(Oc2ccccc2)c1` yielded a melting point of 283 °C.

`COc1cc(C(=O)NN)cc(OC)c1OCCCN(C)C` had a melting point of 95 to 96 °C.

For the compound `CCCCc1c(/C=C/C(=O)OC)ccc2cc(OC)ccc12`, the melting point is 71 to 72 °C.

In turn, `CNc1ncc2c(-c3cccc(Cl)c3)cc(-c3cccc(CC(=O)O)c3)c(OC)c2n1` had a melting point of 258 to 261 °C.

As to `COc1cc2c(cc1Nc1ncc(Cl)c(N[C@H]3[C@@H](C(N)=O)[C@@H]4C=C[C@H]3C4)n1)CCN(CC(=O)N(C)C)CC2`, the melting point lay in the range of 109 to 127 °C.

The compound `CC1(C)CCC(C)(C)c2cc(-c3cc(-c4ccc(C(=O)O)cc4)ccc3OCc3ccccc3)ccc21` gave a melting point of 241 to 244 °C.

In the case of `CC1(C)OCCN1CCNc1ccc(NCCN2CCOC2(C)C)c2c1C(=O)c1c(O)ccc(O)c1C2=O`, the melting point was 255 to 256 °C.

For `CCN(CC)C(=O)Nc1ccc(S(=O)(=O)n2c(=O)n(C3CCCCCC3)c3cc(Cl)ccc32)c(OC)c1`, the melting point turned out to be 218 °C.

`CCOC(=O)C=Cc1ccc(C(=O)O)cc1` displayed a melting point of 196 to 197 °C.

In turn, `CCN(CCF)CCN1C(=O)c2ccccc2C1=O` yielded a melting point of 57 to 59 °C.

In turn, `CC(C)(C)c1cc(SC2CC(=O)N(CCCCCCN3C(=O)CC(Sc4cc(C(C)(C)C)c(O)c(C(C)(C)C)c4)C3=O)C2=O)cc(C(C)(C)C)c1O` (configuration not stated) registered a melting point of 69 to 72 °C.

Compound `CC(=Cc1ccc(C)cc1)COc1cc(C)c(NC=O)c(C)c1C` yielded a melting point of 167 to 169 °C.

`O=S(=O)(c1ccccc1)c1ccc(OCc2ccccc2)c(O)c1` registered a melting point of 144 to 148 °C.

Turning to `CCCCNCc1nc(-c2ccc3c(c2)Nc2ccccc2S3)cs1`, the melting point was in the range of 139 to 141 °C.
